Assay results: PubChem BioAssay (NCI)
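Grown in 96-well plates, cells were treated for 48 hours with each compound at five concentrations. Insufficient inhibition: endpoint recorded as highest concentration tested. GI50: concentration for 50% inhibition of growth. TGI: concentration producing complete growth inhibition.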

Key:
Experiment in all cases: DTP human tumour cell line panel, 48 h
786-0 renal = system: 786-0 renal
TK-10 renal = system: TK-10 renal
SF-268 CNS = system: SF-268 CNS
DU-145 prostate = system: DU-145 prostate
UACC-62 melanoma = system: UACC-62 melanoma
HOP-92 NSCLC = system: HOP-92 NSCLC
NCI-H23 lung = system: NCI-H23 lung
CAKI-1 renal = system: CAKI-1 renal
HS 578T breast = system: HS 578T breast
SN12C renal = system: SN12C renal
OVCAR-3 ovarian = system: OVCAR-3 ovarian
SW-620 colon = system: SW-620 colon
NCI-H226 lung = system: NCI-H226 lung
PC-3 prostate = system: PC-3 prostate
EKVX NSCLC = system: EKVX NSCLC
RXF 393 renal = system: RXF 393 renal
OVCAR-5 ovarian = system: OVCAR-5 ovarian
SR leukemia = system: SR leukemia
NCI/ADR-RES ovarian = system: NCI/ADR-RES ovarian
UO-31 renal = system: UO-31 renal
RPMI-8226 leukemia = system: RPMI-8226 leukemia
M14 melanoma = system: M14 melanoma
HCC-2998 colon = system: HCC-2998 colon
K-562 leukemia = system: K-562 leukemia
MOLT-4 leukemia = system: MOLT-4 leukemia
IGROV1 ovarian = system: IGROV1 ovarian
HL-60(TB) leukemia = system: HL-60(TB) leukemia
CCRF-CEM leukemia = system: CCRF-CEM leukemia
SF-295 CNS = system: SF-295 CNS
SK-MEL-2 melanoma = system: SK-MEL-2 melanoma
MDA-MB-435 = system: MDA-MB-435
SF-539 CNS = system: SF-539 CNS
MDA-MB-231 breast = system: MDA-MB-231 breast
OVCAR-8 ovarian = system: OVCAR-8 ovarian
A549 NSCLC = system: A549 NSCLC
KM12 colon = system: KM12 colon
HCT-15 colon = system: HCT-15 colon
NCI-H460 lung = system: NCI-H460 lung
SK-MEL-5 melanoma = system: SK-MEL-5 melanoma
BT-549 breast = system: BT-549 breast
MCF7 breast = system: MCF7 breast
NCI-H522 lung = system: NCI-H522 lung
ACHN renal = system: ACHN renal
SNB-75 CNS = system: SNB-75 CNS
SK-MEL-28 melanoma = system: SK-MEL-28 melanoma
SK-OV-3 ovarian = system: SK-OV-3 ovarian

COc1ccc(OC)c(-c2cc(-c3ccccc3)nn2-c2ccc(S(=O)(=O)NC(C)=O)cc2)c1
GI50 (786-0 renal): 10.8 µM
TGI (786-0 renal): 23.4 µM
GI50 (TK-10 renal): 12.8 µM
TGI (TK-10 renal): 33.1 µM
GI50 (SF-268 CNS): 10.1 µM
TGI (SF-268 CNS): 32.2 µM
GI50 (DU-145 prostate): 17.9 µM
TGI (DU-145 prostate): 36.9 µM
GI50 (UACC-62 melanoma): 10.9 µM
TGI (UACC-62 melanoma): 22.9 µM
GI50 (HOP-92 NSCLC): 14.4 µM
TGI (HOP-92 NSCLC): 38.9 µM
GI50 (NCI-H23 lung): 8.24 µM
TGI (NCI-H23 lung): 21.5 µM
GI50 (CAKI-1 renal): 13.9 µM
TGI (CAKI-1 renal): 33.9 µM
GI50 (HS 578T breast): 27.4 µM
TGI (HS 578T breast): 80 µM
GI50 (SN12C renal): 13.2 µM
TGI (SN12C renal): 26.2 µM
GI50 (OVCAR-3 ovarian): 2.82 µM
TGI (OVCAR-3 ovarian): 9.55 µM
GI50 (SW-620 colon): 3.52 µM
TGI (SW-620 colon): 9.15 µM
GI50 (NCI-H226 lung): 11.7 µM
TGI (NCI-H226 lung): 24.8 µM
GI50 (PC-3 prostate): 6.08 µM
TGI (PC-3 prostate): 20.6 µM
GI50 (EKVX NSCLC): 22.8 µM
TGI (EKVX NSCLC): 41.8 µM
GI50 (RXF 393 renal): 4.07 µM
TGI (RXF 393 renal): 9.31 µM
GI50 (OVCAR-5 ovarian): 16.9 µM
TGI (OVCAR-5 ovarian): 31.3 µM
GI50 (SR leukemia): 2.38 µM
TGI (SR leukemia): > 100 µM
GI50 (NCI/ADR-RES ovarian): 3.38 µM
TGI (NCI/ADR-RES ovarian): 11.5 µM
GI50 (UO-31 renal): 25.3 µM
TGI (UO-31 renal): > 100 µM
GI50 (RPMI-8226 leukemia): 1.97 µM
TGI (RPMI-8226 leukemia): 4.36 µM
GI50 (M14 melanoma): 2.74 µM
TGI (M14 melanoma): 8.74 µM
GI50 (HCC-2998 colon): 3.08 µM
TGI (HCC-2998 colon): 13.8 µM
GI50 (K-562 leukemia): 3.36 µM
TGI (K-562 leukemia): 9.76 µM
GI50 (MOLT-4 leukemia): 6.57 µM
TGI (MOLT-4 leukemia): > 100 µM
GI50 (IGROV1 ovarian): 27.4 µM
TGI (IGROV1 ovarian): > 100 µM
GI50 (HL-60(TB) leukemia): 28 µM
TGI (HL-60(TB) leukemia): > 100 µM
GI50 (CCRF-CEM leukemia): 2.13 µM
TGI (CCRF-CEM leukemia): 6.55 µM
GI50 (SF-295 CNS): 16.1 µM
TGI (SF-295 CNS): 35.1 µM
GI50 (SK-MEL-2 melanoma): 36.2 µM
TGI (SK-MEL-2 melanoma): > 100 µM
GI50 (MDA-MB-435): 5.77 µM
TGI (MDA-MB-435): 22.9 µM
GI50 (SF-539 CNS): 28.1 µM
TGI (SF-539 CNS): 60.4 µM
GI50 (MDA-MB-231 breast): 3.09 µM
TGI (MDA-MB-231 breast): 14.1 µM
GI50 (OVCAR-8 ovarian): 5.99 µM
TGI (OVCAR-8 ovarian): 62.1 µM
GI50 (A549 NSCLC): 22.9 µM
TGI (A549 NSCLC): > 100 µM
GI50 (KM12 colon): 4.66 µM
TGI (KM12 colon): 39.6 µM
GI50 (HCT-15 colon): 3.72 µM
TGI (HCT-15 colon): 10.2 µM
GI50 (NCI-H460 lung): 13.2 µM
TGI (NCI-H460 lung): > 100 µM
GI50 (SK-MEL-5 melanoma): 11.8 µM
TGI (SK-MEL-5 melanoma): 26.8 µM
GI50 (BT-549 breast): 16.2 µM
TGI (BT-549 breast): 38.6 µM
GI50 (MCF7 breast): 2.38 µM
TGI (MCF7 breast): > 100 µM
GI50 (NCI-H522 lung): 10.4 µM
TGI (NCI-H522 lung): 34.8 µM

N=C(N)c1ccc(-c2ccc(-c3ccc(Cl)cc3Cl)o2)cc1
GI50 (ACHN renal): 1.68 µM
TGI (ACHN renal): 3.06 µM
GI50 (SF-268 CNS): 2.03 µM
TGI (SF-268 CNS): 4.65 µM
GI50 (SNB-75 CNS): 1.4 µM
TGI (SNB-75 CNS): 2.73 µM
GI50 (HS 578T breast): 2.13 µM
TGI (HS 578T breast): 4.99 µM
GI50 (SK-MEL-28 melanoma): 1.61 µM
TGI (SK-MEL-28 melanoma): 3.03 µM
GI50 (NCI-H226 lung): 1.82 µM
TGI (NCI-H226 lung): 4.28 µM
GI50 (OVCAR-5 ovarian): 1.53 µM
TGI (OVCAR-5 ovarian): 2.95 µM
GI50 (UO-31 renal): 1.67 µM
TGI (UO-31 renal): 3.18 µM
GI50 (SK-OV-3 ovarian): 1.62 µM
TGI (SK-OV-3 ovarian): 3.23 µM
GI50 (MDA-MB-435): 1.7 µM
TGI (MDA-MB-435): 3.09 µM
GI50 (SK-MEL-5 melanoma): 1.74 µM
TGI (SK-MEL-5 melanoma): 3.13 µM
